In US20180125774A1, “Method and Composition for Visible Light Dryable Nail Coatings” (priority 2016, published 2018):

What was measured:
Type in all cases: physicochemical
[1] = Stability (thermal, light, oxidation in air) as described
Source text: Any one of several photo-initiators is used in the present invention, wherein the photo-initiators can be either component (A): visible light photo-initiator A or component (B): visible light photo-initiator B. Visible light photo-initiator A is, but not limited to, Bis (η5-2,4-cylcopentadian-1-yl)-bis (2,6-di-fluoro-3-(1H-pyrrol-1-yl) phenyl) titanium. […] More specifically, visible light photo-initiator A is particularly suitable for the curing of photopolymers for imaging or information storage applications where extremely high photosensitivity is required.
It is worth to mention that visible light photo-initiator A is sensitive to visible light and any exposure to sunlight must be avoided. And, the visible light photo-initiator A must be stored in low temperature, which is below 25° C., and dry environment. […] Therefore, opened drums are required to close after use to protect the product against light.
Accordingly, visible light photo-initiator B is, but not limited to, 4,4′-Bis (diethylamino) benzophenone. Visible light photo-initiator B is both an aromatic ketone and a tertiary amine, and acts both as a photosensitizer and an amine synergist.

[2] = Solubility of visible light photo-initiator A in solvents; details: 25° C.
Source text: The following table 2 lists the solubility of the visible light photo-initiator A of the first preferred embodiment of the visible light dryable nail coating according to this present invention.

[3] = Solubility of visible light photo-initiator B in solvents; details: 20° C.
Source text: The following table 5 lists the solubility of the visible light photo-initiator B of the first preferred embodiment of the visible light dryable nail coating according to this present invention.

[4] = Specification solubility test in acetone
Source text: The following table 4 lists the specification of the visible light photo-initiator B of the first preferred embodiment of the visible light dryable nail coating according to this present invention.

Thermal stability [1]	Solubility ([2]; Acetone) [g in 100 ml solvent]	Solubility ([2]; Butyl Acetate) [g in 100 ml solvent]	Solubility ([2]; HDDA) [g in 100 ml solvent]	Solubility ([2]; MEK) [g in 100 ml solvent]	Solubility ([2]; Toluene) [g in 100 ml solvent]	Solubility ([2]; Water) [g in 100 ml solvent]	Solubility ([3]; Acetone) [% w/w]	Solubility ([3]; Butyl Acetate) [% w/w]	Solubility ([3]; Ethyl acetate) [% w/w]	Solubility ([3]; Methanol) [% w/w]	Solubility ([3]; Toluene) [% w/w]	Solubility ([3]; Water) [% w/w]	Solubility (3 g/10 mL Acetone) [4]	SMILES	Light sensitivity ([1]; dissolved in a solvent or a formulation, daylight and standard fluorescence bulbs)	Resistance to oxidation ([1]; exposure in air, versus most commercially available EMK)
good thermal stability	30	2	10	30	10	<0.5	–	–	–	–	–	–	–	Fc1ccc(-n2cccc2)c(F)[c]1[Ti+2][c]1c(F)ccc(-n2cccc2)c1F.c1cc[cH-]c1.c1cc[cH-]c1 [visible light photo-initiator A, Bis (η5-2,4-cylcopentadian-1-yl)-bis (2,6-di-fluoro-3-(1H-pyrrol-1-yl)phenyl) titanium]	extremely sensitive to daylight and light from standard fluorescence bulbs	–
–	–	–	–	–	–	–	30	30	24	7.0	25	<0.01	Clear solution	CCN(CC)c1ccc(C(=O)c2ccc(N(CC)CC)cc2)cc1 [visible light photo-initiator B, 4,4′-Bis (diethylamino) benzophenone]	–	more resistant to oxidation by exposure in air than most commercially available EMK
